The values below come from patent US11214803B2, “Modulators of YAP1 expression” (Ionis Pharmaceuticals, Inc., priority 2019, dated 2022).

Strand notation (5' to 3'): a small letter for the sugar, then the base; units joined by * are phosphorothioate-linked, units joined directly phosphodiester-linked; [ ] holds rarer units or linkages, { } end groups; capitals alone tell only the bases. k = constrained ethyl (cEt); [5mC] = 5-methylcytosine; d = 2'-deoxy (DNA)

The first data set concerns Yap1 mRNA. Briefly: Antisense inhibition of human Yap1 in A-431 cells by cEt gapmers, single dose (Example 4, RTS4814). The format is cell-based. The note with it: Table 14; A-431 cells, 5,000 cells per well, free uptake, 2,000 nM, approximately 48 hours; RTS4814; normalized to RIBOGREEN; Yap1 mRNA relative to untreated control; * = targets amplicon region of primer probe set. In outline:
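A-431 cells took up 3-10-3 cEt gapmers (16-mer, full phosphorothioate, 5-methylcytosines) by free uptake at 2,000 nM for about 48 h. Yap1 mRNA was quantified by qRT-PCR, normalized to total RNA (RIBOGREEN), and reported as % of untreated control.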
On to “1075680 (kA*kT*kT*dA*dT*dT*dA*d[5mC]*d[5mC]*d[5mC]*d[5mC]*dT*dT*k[5mC]*kT*kA; antisense) [Compound 1075680]”, for which the “YAP1 (% UTC)” value turned out to be 73 % UTC.
For the substance “1075712 (kG*kA*k[5mC]*dG*d[5mC]*dG*dA*dA*dA*dT*dA*d[5mC]*dT*kT*kA*k[5mC]; antisense) [Compound 1075712]”, the “YAP1 (% UTC)” value was 7 % UTC.
Turning to “1075744 (kT*kT*k[5mC]*dG*dG*dG*dT*dT*dA*dG*d[5mC]*dA*dG*kA*k[5mC]*kT; antisense) [Compound 1075744]”, the “YAP1 (% UTC)” value worked out at 6 % UTC.
For the substance “1075776 (kA*kT*kG*dT*dG*dA*dT*dA*dT*dG*dG*dA*dT*kT*k[5mC]*kT; antisense) [Compound 1075776]”, the “YAP1 (% UTC)” value is 10 % UTC.
Same read-out and setting: for “1075808 (kG*k[5mC]*kA*dA*dT*dA*dG*dA*dG*dT*dA*dA*d[5mC]*k[5mC]*kA*kG; antisense) [Compound 1075808]” the value was 3 % UTC.
Still for that read-out and setting: in the case of “1075840 (k[5mC]*k[5mC]*kT*dA*dA*dA*dA*dT*dA*dG*dG*dA*dA*kT*kG*k[5mC]; antisense) [Compound 1075840]” it was 89 % UTC.
In the case of “1075872 (k[5mC]*kA*kA*dT*dT*dA*dT*dG*dA*d[5mC]*dA*dA*dA*k[5mC]*kA*kG; antisense) [Compound 1075872]”, the “YAP1 (% UTC)” value came out at 21 % UTC.

The same data set, now with this note: Table 15; A-431 cells, 5,000 cells per well, free uptake, 2,000 nM, approximately 48 hours; RTS4814; normalized to RIBOGREEN; Yap1 mRNA relative to untreated control; * = targets amplicon region of primer probe set.
As to “1075681 (kT*kA*kA*dT*dT*dA*dT*dT*dA*d[5mC]*d[5mC]*d[5mC]*d[5mC]*kT*kT*k[5mC]; antisense) [Compound 1075681]”, the “YAP1 (% UTC)” value came out at 37 % UTC.
Regarding “1075713 (kA*kA*kT*d[5mC]*dA*dA*d[5mC]*d[5mC]*dT*dT*dG*dT*dT*kA*kG*kA; antisense) [Compound 1075713]”, the “YAP1 (% UTC)” value was 58 % UTC.
As for “1075745 (k[5mC]*kT*kT*d[5mC]*dA*dA*dA*dA*dG*d[5mC]*dA*d[5mC]*dG*kG*kT*kG; antisense) [Compound 1075745]”, the “YAP1 (% UTC)” value amounted to 58 % UTC.
“1075777 (kT*kA*kT*dG*dT*dG*dA*dT*dA*dT*dG*dG*dA*kT*kT*k[5mC]; antisense) [Compound 1075777]”: the “YAP1 (% UTC)” value came to 12 % UTC.
Same read-out and setting: for “1075809 (kT*kA*kG*d[5mC]*dA*dA*dT*dA*dG*dA*dG*dT*dA*kA*k[5mC]*k[5mC]; antisense) [Compound 1075809]” the value was 13 % UTC; for “1075841 (kA*kT*kT*dT*dA*dG*dG*dT*dA*d[5mC]*dT*d[5mC]*dA*kG*kT*kA; antisense) [Compound 1075841]”, 27 % UTC.

Still in this data set, the particulars now being: Table 16; A-431 cells, 5,000 cells per well, free uptake, 2,000 nM, approximately 48 hours; RTS4814; normalized to RIBOGREEN; Yap1 mRNA relative to untreated control cells.
Regarding “1075682 (kG*kA*kT*dA*dA*dT*dT*dA*dT*dT*dA*d[5mC]*d[5mC]*k[5mC]*k[5mC]*kT; antisense) [Compound 1075682]”, the “YAP1 (% UTC)” value amounted to 35 % UTC.
Regarding “1075714 (kA*kA*kT*dT*dA*d[5mC]*dA*dA*dT*d[5mC]*dA*dA*d[5mC]*k[5mC]*kT*kT; antisense) [Compound 1075714]”, the “YAP1 (% UTC)” value came out at 42 % UTC.
Still for that read-out and setting: in the case of “1075746 (kG*kA*kT*dT*dA*dA*d[5mC]*d[5mC]*d[5mC]*dA*dG*dT*dA*kG*kA*kG; antisense) [Compound 1075746]” it was 28 % UTC; in that of “1075778 (k[5mC]*kA*kT*dT*dT*dA*dT*dA*d[5mC]*d[5mC]*dA*dG*dG*k[5mC]*kA*k[5mC]; antisense) [Compound 1075778]”, 3 % UTC; in that of “1075810 (kG*kT*kA*dG*d[5mC]*dA*dA*dT*dA*dG*dA*dG*dT*kA*kA*k[5mC]; antisense) [Compound 1075810]”, 7 % UTC.
Still for that read-out and setting: for “1075842 (kG*kT*kA*dT*dT*dT*dA*dG*dG*dT*dA*d[5mC]*dT*k[5mC]*kA*kG; antisense) [Compound 1075842]” the value was 2 % UTC.

Still in this data set, the particulars now being: Table 17; A-431 cells, 5,000 cells per well, free uptake, 2,000 nM, approximately 48 hours; RTS4814; normalized to RIBOGREEN; Yap1 mRNA relative to untreated control cells.
With “1075683 (k[5mC]*kT*kG*dA*dA*dA*dA*dA*dG*dT*dT*dA*dT*kG*k[5mC]*k[5mC]; antisense) [Compound 1075683]”, the “YAP1 (% UTC)” value was found to be 56 % UTC.
Still for that read-out and setting: for “1075715 (kG*kA*kA*dT*dT*dA*d[5mC]*dA*dA*dT*d[5mC]*dA*dA*k[5mC]*k[5mC]*kT; antisense) [Compound 1075715]” the value was 12 % UTC.
For the substance “1075747 (kA*kT*kT*dT*dA*dG*d[5mC]*dA*dT*dG*dA*dT*dT*kA*kA*k[5mC]; antisense) [Compound 1075747]”, the “YAP1 (% UTC)” value is reported as 43 % UTC.
Same read-out and setting: in the case of “1075779 (kG*kT*kA*dT*dT*dA*d[5mC]*dA*dA*dA*d[5mC]*dT*dG*kA*kT*kT; antisense) [Compound 1075779]” it was 28 % UTC; in that of “1075811 (kA*kT*kT*dG*dT*dA*dG*d[5mC]*dA*dA*dT*dA*dG*kA*kG*kT; antisense) [Compound 1075811]”, 10 % UTC; in that of “1075843 (k[5mC]*kA*kT*dG*dA*dA*dA*dT*dG*dA*dT*dG*dG*kA*kA*k[5mC]; antisense) [Compound 1075843]”, 47 % UTC.

Still in this data set, the particulars now being: Yap1 mRNA remaining as percent of untreated control; 3-10-3 cEt gapmers; A-431 cells; Table 36.
With “1075702 (kG*kA*kG*dG*dA*dA*dG*dG*dG*d[5mC]*dA*d[5mC]*d[5mC]*kT*kT*kT; antisense) [compound 1075702]”, the “YAP1 (% UTC)” value is reported as 81 % UTC.
Still for that read-out and setting: in the case of “1075734 (kA*kG*kG*d[5mC]*dA*dA*dT*dA*dA*d[5mC]*d[5mC]*dT*d[5mC]*kG*kA*kG; antisense) [compound 1075734]” it was 26 % UTC; in that of “1075798 (kA*kT*kT*dT*dA*dG*dA*dT*dA*dG*dT*dT*dA*k[5mC]*kT*kG; antisense) [compound 1075798]”, 21 % UTC; in that of “1075830 (kG*kA*kT*dG*dA*dA*d[5mC]*dA*d[5mC]*dT*d[5mC]*dA*dA*kT*kA*kG; antisense) [compound 1075830]”, 12 % UTC.
Turning to “1075862 (antisense k[5mC]*kT*kA*dA*dT*dA*dA*d[5mC]*dT*dT*dG*dT*d[5mC]*kT*kA*k[5mC]) [compound 1075862]”, the “YAP1 (% UTC)” value amounted to 67 % UTC.

Staying with this data set, now noted: Yap1 mRNA remaining as percent of untreated control; 3-10-3 cEt gapmers; A-431 cells; Table 37.
Take “1075671 (kG*kA*kT*dA*dT*dA*dT*dA*dT*dG*dA*dT*dG*kG*kA*k[5mC]; antisense) [compound 1075671]”: the “YAP1 (% UTC)” value is on record as 37 % UTC.
The same measure, in the same setting: in the case of “1075703 (kG*kG*kA*dG*dA*dA*dA*dG*d[5mC]*d[5mC]*dA*dT*d[5mC]*kA*kA*kG; antisense) [compound 1075703]” it was 10 % UTC; in that of “1075735 (kG*kA*kA*dT*d[5mC]*dG*dA*dT*dG*dT*dG*dT*dT*kG*k[5mC]*kG; antisense) [compound 1075735]”, 17 % UTC.
With “1075767 (kT*kA*kT*dT*dA*d[5mC]*dA*d[5mC]*dA*dG*dG*d[5mC]*dA*kG*kG*k[5mC]; antisense) [compound 1075767]”, the “YAP1 (% UTC)” value turned out to be 12 % UTC.
Still for that read-out and setting: for “1075799 (k[5mC]*k[5mC]*kT*d[5mC]*dA*dA*d[5mC]*dA*d[5mC]*dA*dT*dT*dT*kG*kA*kG; antisense) [compound 1075799]” the value was 85 % UTC; for “1075831 (kT*kA*kT*dT*dA*dG*d[5mC]*d[5mC]*dT*dT*d[5mC]*dT*dA*kA*k[5mC]*k[5mC]; antisense) [compound 1075831]”, 59 % UTC.
The same measure, in the same setting: in the case of “1075863 (antisense k[5mC]*k[5mC]*kT*dA*dA*dT*dA*dA*d[5mC]*dT*dT*dG*dT*k[5mC]*kT*kA) [compound 1075863]” it was 71 % UTC.
